Measurements reported in patent US20240024295A1, “COMPOSITIONS AND METHODS FOR INHIBITING HAIR GROWTH” (priority 2020, published 2024).

System: C3H mice
Assay: Telogen Conversion Assay
Format: in vivo
Conditions: for Average Grades, 23 Days: average of 7 mice after 23 days; for hair regrowth as compared to the control group (placebo): applied daily to mice, at the appropriate dose-level, week 3 and week 4, FIGURE; for effect on hair growth (average grade): average grade of 7 mice after 23 days, example written in present tense
Procedure: FP receptor antagonists are tested for their potential to grow hair using the Telogen Conversion Assay. The Telogen Conversion Assay measures the potential of a FP receptor antagonist to inhibit in mice the conversion of hair in the resting stage of the hair growth cycle (“telogen”), to the growth stage of the hair growth cycle (“anagen”), and to assess the rate of anagen growth.
Without intending to be limited by theory, there are three principal phases of the hair growth cycle: anagen, catagen, and telogen. It is believed that there is a long telogen period in C3H mice (Harian Sprague Dawley, Inc., Indianapolis, IN) from approximately 40 days of age until about 75 days of age, when hair growth is synchronized. It is believed that after 75 days of age, hair growth is no longer synchronized. Wherein about 40 day-old mice with dark fur (brown or black) are used in hair growth experiments, melanogenesis occurs along with hair (fur) growth wherein the topical application of hair growth inducers is evaluated. The Telogen Conversion Assay herein is used to screen FP receptor antagonists for potential hair growth by measuring melanogenesis and/or inhibition of expected hair growth.
Three groups of 44 day-old C3H mice are used: a vehicle control group, a positive control group, and a test FP receptor antagonist group, wherein the test FP receptor antagonist group is administered a FP receptor antagonist. The length of the assay is typically 24 days with 15 treatment days (wherein the treatment days occur Mondays through Fridays). Day 1 is the first day of treatment. Typical dosage concentrations are set forth in Table 1, however the skilled artisan will readily understand that such concentrations may be modified.
The mice are treated topically Monday through Friday on their lower back (base of tail to the lower rib). A pipette and tip are used to deliver 400 μL to each mouse's back. The 400 μL application is applied slowly while moving hair on the mouse to allow the application to reach the skin.
While each treatment is being applied to the mouse topically, a visual grade of from 0 to 4 will be given to the skin color in the application area of each animal. As a mouse converts from telogen to anagen, its skin color will become less pink and more bluish-black.

[1] = visual skin/hair grade 0 (pink skin) to 4 (full anagen), topical

Compound | Average Grades, 23 Days [1] | Average Grades, 25 Days (visual skin/hair grade 0 (pink skin) to 4 (full anagen), average of 7 mice after 25 days, topical) | Average Grades, 26 Days (visual skin/hair grade 0 (pink skin) to 4 (full anagen), average of 7 mice after 26 days, topical) | hair regrowth as compared to the control group (placebo) | effect on hair growth (average grade)
O=C(O)CCC/C=C\CC1C(/C=C/[C@H](O)C2Cc3ccccc3C2)[C@@H](F)C[C@@H]1O (stereo partly drawn) [Example 1] | 0.4 | 0.1 | 0.7 | – | –
O=C(N[C@H](c1ccccc1)c1ccccn1)[C@@H]1SCCN1S(=O)(=O)c1ccc(-c2ccccc2)cc1 [Example 3] | – | – | – | inhibited hair regrowth | significantly reduces hair growth
Ile-Leu-Gly-His-(citrulline)-Asp-Tyr-Lys [Example 5] | – | – | – | – | significantly reduces hair growth
COC(=O)CCC/C=C\CC1C(/C=C/[C@H](O)C2Cc3ccccc3C2)[C@@H](F)C[C@@H]1O (stereo partly drawn) [Example 2] | 0.1 | – | – | inhibited hair regrowth | –
CC(C)OC(=O)CCC/C=C\CC1C(/C=C/[C@H](O)C2Cc3ccccc3C2)[C@@H](F)C[C@@H]1O (stereo partly drawn) [Example 4] | – | – | – | – | significantly reduces hair growth
